Measured values: ChEMBL document CHEMBL4371032, “Synthesis and evaluation of 2,5-diamino and 2,5-dianilinomethyl pyridine analogues as potential CXCR4 antagonists” (2019)
The source made the active and inactive calls. No cut-off for these calls is given here.

How the values were obtained:
[1] = target: C-X-C chemokine receptor type 4 (Homo sapiens) (UniProt P61073); test: Inhibition of biotinylated TN14003 binding to CXCR4 in human MDA-MB-231 cells preincubated for 10 mins followed by biotinylated-TN14003 addition measured after 30 mins by streptavidin-rhodamine staining based fluorescence microscopic analysis; format: cell-based
[2] = target: C-X-C chemokine receptor type 4 (Homo sapiens) (UniProt P61073); test: Inhibition of CXCR4-mediated chemotaxis in human MDA-MB-231 cells assessed as reduction in CXCL12alpha-induced cell invasion at 100 nM after 22 hrs by hematoxylin/eosin dye-based matrigel assay relative to control
Mus musculus = test: Antiinflammatory activity in C57Bl/6J mouse assessed as inhibition of carrageenan-induced paw edema at 10 mg/kg, ip treated for 2 days measured 2 hrs post last dose by caliper method relative to control; format: functional

Sequence of C-X-C chemokine receptor type 4 (Homo sapiens) (P61073 whole entry): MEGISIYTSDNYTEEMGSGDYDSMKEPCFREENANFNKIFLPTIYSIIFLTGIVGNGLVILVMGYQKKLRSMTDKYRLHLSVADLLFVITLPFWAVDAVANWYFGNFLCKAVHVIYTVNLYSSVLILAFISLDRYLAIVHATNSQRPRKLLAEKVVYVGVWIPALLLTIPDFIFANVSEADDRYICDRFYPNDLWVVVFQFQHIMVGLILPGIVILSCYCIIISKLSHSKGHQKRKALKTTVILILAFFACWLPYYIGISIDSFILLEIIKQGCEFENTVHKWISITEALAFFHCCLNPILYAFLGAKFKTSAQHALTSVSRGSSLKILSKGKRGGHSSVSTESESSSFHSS

| SMILES | EC [1] | inhibition [2] | inhibition (Mus musculus) | inhibition in vivo at 10 mg/kg (Mus musculus) |
| --- | --- | --- | --- | --- |
| COc1ccc(NCc2ccc(CNc3ccc(OC)cc3)nc2)cc1 | 1000 nM |  |  |  |
| CCc1ccc(NCc2ccc(CNc3ccc(CC)cc3)nc2)cc1 | 1000 nM |  |  |  |
| Cc1ccc(NCc2ccc(CNc3ccc(C)cc3)nc2)cc1 | 100 nM | 85.1% | inactive |  |
| Cc1ccc(CNc2ccc(NCc3ccc(C)cc3)nc2)cc1 | 10 nM | 35.7% |  |  |
| Fc1ccc(CNc2ccc(NCc3ccc(F)cc3)nc2)cc1 | 1000 nM |  |  |  |
| Fc1ccccc1NCc1ccc(CNc2ccccc2F)nc1 | 1000 nM |  |  |  |
| Fc1cccc(NCc2ccc(CNc3cccc(F)c3)nc2)c1 | 100 nM | 82.4% |  | 12% |
| Brc1ccc(NCc2ccc(CNc3ccc(Br)cc3)nc2)cc1 | 1000 nM |  |  |  |
| c1ccc(NCc2ccc(CNc3ccccn3)cc2)nc1 |  |  |  | 40% |
| COc1ccccc1NCc1ccc(CNc2ccccc2OC)nc1 |  | 84.1% |  | 11% |
| Brc1ccc(CNc2ccc(NCc3ccc(Br)cc3)nc2)cc1 | 1000 nM |  |  |  |
| CCc1ccc(CNc2ccc(NCc3ccc(CC)cc3)nc2)cc1 | > 1000 nM |  |  |  |
| Clc1ccc(CNc2ccc(NCc3ccc(Cl)cc3)nc2)cc1 | 10 nM | 83.7% |  | 8% |
| COc1cccc(NCc2ccc(CNc3cccc(OC)c3)nc2)c1 | 100 nM | 76.8% | inactive |  |
| Fc1ccc(NCc2ccc(CNc3ccc(F)cc3)nc2)cc1 | 1000 nM |  |  |  |
| Cc1cccc(NCc2ccc(CNc3cccc(C)c3)nc2)c1 |  | 99% | inactive |  |
| COc1ccccc1NCc1cccc(CNc2ccccc2OC)n1 |  | < 1% |  |  |
| c1cc(CN2CCCNCCNCCCNCC2)ccc1CN1CCCNCCNCCCNCC1 |  | 62% | inactive |  |
| Clc1ccc(NCc2ccc(CNc3ccc(Cl)cc3)nc2)cc1 | 1000 nM |  |  |  |
| Cc1ccccc1NCc1ccc(CNc2ccccc2C)nc1 | 1000 nM |  |  |  |

Second part, led by results:

| EC [1] | SMILES | inhibition [2] | inhibition (Mus musculus) | inhibition in vivo at 10 mg/kg (Mus musculus) |
| --- | --- | --- | --- | --- |
| > 1000 nM | COc1ccccc1CNc1ccc(NCc2ccccc2OC)nc1 |  |  |  |
| 1000 nM | c1ccc(CNc2ccc(NCc3ccccc3)nc2)cc1 |  |  |  |
| 100 nM | Cc1ccccc1CNc1ccc(NCc2ccccc2C)nc1 | 82.4% |  | 3% |
| 1000 nM | O=[N+]([O-])c1ccc(CNc2ccc(NCc3ccc([N+](=O)[O-])cc3)nc2)cc1 |  |  |  |
| 1000 nM | O=[N+]([O-])c1ccccc1CNc1ccc(NCc2ccccc2[N+](=O)[O-])nc1 |  |  |  |
| 1000 nM | O=[N+]([O-])c1ccccc1NCc1ccc(CNc2ccccc2[N+](=O)[O-])nc1 |  |  |  |
| 100 nM | O=[N+]([O-])c1cccc(NCc2ccc(CNc3cccc([N+](=O)[O-])c3)nc2)c1 | 73.4% |  |  |
| 100 nM | Fc1cccc(CNc2ccc(NCc3cccc(F)c3)nc2)c1 | 4.8% |  |  |
| 1000 nM | c1ccc(NCc2ccc(CNc3ccccc3)nc2)cc1 |  |  |  |
| 1 nM | O=[N+]([O-])c1ccc(NCc2ccc(CNc3ccc([N+](=O)[O-])cc3)nc2)cc1 | 80.3% |  | 13% |
| 100 nM | Fc1ccccc1CNc1ccc(NCc2ccccc2F)nc1 | 53.3% |  |  |
| 100 nM | Cc1cccc(CNc2ccc(NCc3cccc(C)c3)nc2)c1 | 50.4% |  |  |
| 1000 nM | O=[N+]([O-])c1cccc(CNc2ccc(NCc3cccc([N+](=O)[O-])c3)nc2)c1 |  |  |  |
| > 1000 nM | COc1cccc(CNc2ccc(NCc3cccc(OC)c3)nc2)c1 |  |  |  |
